According to patent US8288418B2, “Benzimidazole derivatives and their use for modulating the GABAA receptor complex” (Neurosearch A/S, priority 2006, dated 2012):

Tests used:
[1] = target: GABAA receptor complex, benzodiazepine modulatory unit (cerebral cortex membranes); assay: In vitro inhibition of 3H-flunitrazepam (3H-FNM) binding; design: species or system rat; details: inhibition of specific binding of 3H-FNM (1 nM), cerebral cortex membranes of male Wistar rats, 40 min at 2° C.
Description: In vitro Inhibition of ^3H-flunitrazepam (^3H-FNM) Binding
The GABA recognition site and the benzodiazepine modulatory unit can selectively be labelled with ^3H-flunitrazepam.
Preparations are performed at 0-4° C. unless otherwise indicated. Cerebral cortex from male Wistar rats (150-200 g) is homogenised for 5-10 sec in 20 ml Tris-HCl (30 mM, pH 7.4) using an Ultra-Turrax homogeniser. The suspension is centrifuged at 27,000×g for 15 min and the pellet is washed three times with buffer (centrifuged at 27,000×g for 10 min). The washed pellet is homogenized in 20 ml of buffer and incubated on a water bath (37° C.) for 30 min to remove endogenous GABA and then centrifuged for 10 min at 27,000×g. The pellet is then homogenized in buffer and centrifuged for 10 min at 27,000×g. The final pellet is resuspended in 30 ml buffer and the preparation is frozen and stored at −20° C.
The membrane preparation is thawed and centrifuged at 2° C. for 10 min at 27,000×g. The pellet is washed twice with 20 ml 50 mM Tris-citrate, pH 7.1 using an Ultra-Turrax homogeniser and centrifuged for 10 min at 27,000×g. The final pellet is resuspended in 50 mM Tris-citrate, pH 7.1 (500 ml buffer per g of original tissue), and then used for binding assays. Aliquots of 0.5 ml tissue are added to 25 μl of test solution and 25 μl of ^3H-FNM (1 nM, final concentration), mixed and incubated for 40 min at 2° C. Non-specific binding is determined using Clonazepam (1 μM, final concentration). After incubation the samples are added 5 ml of ice-cold buffer and poured directly onto Whatman GF/C glass fibre filters under suction and immediately washed with 5 ml ice-cold buffer. The amount of radioactivity on the filters is determined by conventional liquid scintillation counting. Specific binding is total binding minus non-specific binding.
25-75% inhibition of specific binding must be obtained, before calculation of an IC50.
The test value will be given as IC50 (the concentration (μM) of the test substance which inhibits the specific binding of ^3H-FNM by 50%).
Co is specific binding in control assays, and
Cx is the specific binding in the test assay.
(The calculations assume normal mass-action kinetics).

| SMILES | melting point [°C] | IC50 [1] [nM] |
| --- | --- | --- |
| COc1cc(F)ccc1-c1cccc(-n2cnc3cc(C(F)(F)F)ccc32)c1 [Compound 9a, 1-(4′-Fluoro-2′-methoxy-biphenyl-3-yl)-5-trifluoromethyl-1H-benzoimidazole] | 95.5 | 1.4 |
| CC(C)(O)c1ccc2c(c1)ncn2-c1cccc(-c2ccccc2C#N)c1 [Compound 9aac, 3′-[5-(1-Hydroxy-1-methyl-ethyl)-benzoimidazol-1-yl]-biphenyl-2-carbonitrile] | – | 0.65 |
| C[C@@H](O)c1ccc2c(c1)ncn2-c1cccc(-c2cccnc2F)c1 [Compound 9aba, (R)-1-{1-[3-(2-Fluoro-pyridin-3-yl)-phenyl]-1H-benzoimidazol-5-yl}-ethanol] | – | 6.2 |
| CC(C)(O)c1ccc2c(c1)ncn2-c1cccc(-c2cccnc2F)c1 [Compound 9ada, 2-{1-[3-(2-Fluoro-pyridin-3-yl)-phenyl]-1H-benzoimidazol-5-yl}-propan-2-ol] | – | 4 |
| COc1ccccc1-c1cccc(-n2cnc3cc(-c4cc[nH]n4)ccc32)c1 [Compound 9ak, 5-(1H-3-Pyrazolyl)-1-(2′-methoxy-biphenyl-3-yl)-1H-benzoimidazole] | – | 21 |
| N=C(NO)c1ccc2c(c1)ncn2-c1cccc(-c2ccccc2Cl)c1 [Compound 12ha, 1-(2′-Chloro-biphenyl-3-yl)-N-hydroxy-1H-benzoimidazole-5-carboxamidine] | – | 0.95 |
| CC(=NO)c1ccc2c(c1)ncn2-c1cccc(-c2cccnc2O)c1 [Compound 15, 1-{1-[3-(2-Hydroxy-pyridin-3-yl)-phenyl]-1H-benzoimidazol-5-yl}-ethanone oxime] | 220 to 223 | – |
| CC(O)c1ccc2c(c1)ncn2-c1cccc(-c2cccnc2O)c1 (stereo not shown) [Compound 16, 3-{3-[5-(1-Hydroxy-ethyl)-benzoimidazol-1-yl]-phenyl}-pyridin-2-ol] | 133 to 137 | – |
| CC(C)OC(=O)c1ccc2c(c1)ncn2-c1cccc(-c2cccnc2Cl)c1 [Compound 19, 1-[3-(2-Chloro-pyridin-3-yl)-phenyl]-1H-benzoimidazole-5-carboxylic acid isopropyl ester] | 147 to 150 | – |
